Structures are written as SMILES.

The values that follow come from patent US20090306093A1, “METHOD FOR TREATING PATIENT HAVING BENIGN PROSTATE HYPERPLASIA” (KAOHSIUNG MEDICAL UNIVERSITY, priority 2008, published 2009).

In assay [1] the test system is phenylephrine (10 μM) pre-contracted rat isolated prostate. Put plainly: Relaxation of phenylephrine pre-contracted rat isolated prostate strips (isometric tension). To be noted: for relaxation: 10 μM, 1 hour. The protocol:
The rat isolated prostate tissue was prepared as previously described with modifications^[10]. Briefly, Wistar rats (300-400 g) were killed with pentobarbital sodium (30 mg/kg) and the ventral part of their prostates were quickly excised. […] O2 and 5% CO2.
Isometric tension was recorded with a force displacement transducer (UGO BASILE, Model 7004, Italy). After the equilibration period, the strips were primed twice by adding 10 μM of the agonist, phenylephrine, to reach 80-100% of maximum contraction. […] The relaxation on rat prostate by KMUP-1 (0.01-100 μM) and tamsulosin (0.001 nM-100 μM) were also tested by their combination with sildenafil (0.1 μM), respectively. In isolated prostate strips, while stable constriction to phenylephrine was reached, sildenafil (0.1 μM) was pre-incubation for 30 minutes, before the cumulative addition of KMUP-1 (0.01-100 μM) or tamsulosin (0.001 nM-100 μM) to isolated prostate strips. In another experiment, to examine the possible mechanism of action of KMUP-1, rat prostates were pretreated with ODQ (1H-[1,2,4]oxadiazolo[4,3-a]quinoxalin-1-one, 10 μM, sGC inhibitor), RP-8pCPT-cGMPs (10 μM, PKG inhibitor), glibenclamide (10 μM, KATP channel blocker), 4-AP (4-aminopyridine, 100 μM, voltage-dependent K^+ channel blocker), apamin (1 μM, Ca^2+-dependent K^+ channel blocker) and charybdotoxin (ChTX) (0.1 μM, Ca^2+-dependent K^+ channel blocker) for 30 minutes before addition of KMUP-1 (100 μM).

In assay [2] the test system is ROCK2. Put plainly: Western blot of phenylephrine-induced Rho kinase (ROCK2) expression in rat prostate. To be noted: KMUP-1 10, 100 μM; Y-27632 10 μM; phenylephrine 10 μM. How it is done: In order to examine the expression of Rho kinase in prostate, the prostate strips were pre-incubated with phenylephrine (10 μM) for 30 minutes. After a pre-treatment of phenylephrine, KMUP-1 (10-100 μM) and Y-27632 (10 μM) were further incubated for 30 minutes. After the incubation time, the prostate were extracted with protein extraction reagent (Pierce Biotechnology, Inc., Rockford, Ill., USA.). The PZ-HPV-7 cells were incubated with and without KMUP-1 (0.1-10 μM) at 30 minutes, 8 and 24 hours. They were then washed rapidly with ice-cold PBS, incubated with protein extraction reagent, and scraped from the plates. The prostate tissues and cells were sonicated three times for 10 second each time and centrifuged at 13,000 rpm at 4° C. for 30 minutes. The protein concentrations of supernatants were determined, using bovine serum albumin as the standard. Tissue and cell extract protein were then boiled at a ratio of 4:1 with sample buffer (100 mM Tris, pH 6.8, 20% glycerol, 4% SDS, and 0.2% bromphenol blue). 40-60 μg protein was used in this experiment. Electrophoresis was performed using 10 or 12% SDS-polyacrylamide gel electrophoresis and then transferred to nitrocellulose membranes (Millipore Corporation, Billerica, Mass.). […] The intensity of the bands was measured by densitometry.
In general terms: Immunoblotting shows a protein as a band on a membrane.

Assay [3] concerns the target a1A-adrenergic receptor. To be noted: data from the reference; cited from earlier work.
Assay [4] relates to cGMP. The assay can be described thus: Determination of cGMP in rat isolated prostate (radioimmunoassay). To be noted: 100 μM, 1 hour. The protocol:
Isolated prostate strips from Wistar rats were prepared to determine prostate levels of cGMP and cAMP. Briefly, prostate strips were respectively incubated with KMUP-1 (10-100 μM), sildenafil (100 μM), and zaprinast (100 μM) in 10 mL Tyrode solution aerated with 95% O2 and 5% CO2 for 1 hour. To examine the possible mechanisms of action of KMUP-1, the rat prostate was pretreated with ODQ (10 μM, sGC inhibitor) and SQ22536 (9-(tetrahydro-2-furanyl)-9H-purin-6-amine, 10 μM, adenylyl cyclase inhibitor) for 30 minutes before KMUP-1 was added. After the incubation, the prostate tissues were extracted with 1 mL of 0.1 N HCl. The extracts were then lyophilized for a further measurement of cyclic GMP or cyclic AMP of each sample, using commercially available radioimmunoassay kits (Amersham Pharmacia Biotech, Buckinghamshire, England).

Assay [5] relates to sGCa1. The assay can be described thus: Western blot of sGCa1 expression in rat prostate. To be noted: KMUP-1 10-100 μM; sildenafil, zaprinast 100 μM; 1 hour. The protocol: (§1) Prostate strips were incubated with KMUP-1 (10-100 μM), sildenafil (100 μM) and zaprinast (100 μM) in 10 mL Tyrode solution aerated with 95% O2 and 5% CO2 for 1 hour. To examine the possible mechanisms of KMUP-1 action, the rat prostate were pretreated with ODQ (10 μM), SQ22536 (10 μM) and RP-8pCPT-cGMPs (10 μM) for 30 minutes prior to the addition of KMUP-1 (100 μM).
(§2) In order to examine the expression of Rho kinase in prostate, the prostate strips were pre-incubated with phenylephrine (10 μM) for 30 minutes. After a pre-treatment of phenylephrine, KMUP-1 (10-100 μM) and Y-27632 (10 μM) were further incubated for 30 minutes. After the incubation time, the prostate were extracted with protein extraction reagent (Pierce Biotechnology, Inc., Rockford, Ill., USA.). The PZ-HPV-7 cells were incubated with and without KMUP-1 (0.1-10 μM) at 30 minutes, 8 and 24 hours. They were then washed rapidly with ice-cold PBS, incubated with protein extraction reagent, and scraped from the plates. The prostate tissues and cells were sonicated three times for 10 second each time and centrifuged at 13,000 rpm at 4° C. for 30 minutes. The protein concentrations of supernatants were determined, using bovine serum albumin as the standard. Tissue and cell extract protein were then boiled at a ratio of 4:1 with sample buffer (100 mM Tris, pH 6.8, 20% glycerol, 4% SDS, and 0.2% bromphenol blue). 40-60 μg protein was used in this experiment. Electrophoresis was performed using 10 or 12% SDS-polyacrylamide gel electrophoresis and then transferred to nitrocellulose membranes (Millipore Corporation, Billerica, Mass.). The membrane was blocked with Tris-buffered saline (20 mM Tris and 137 mM NaCl, pH 7.6) containing 0.1% Tween 20 (TTBS) and 5% non-fat milk at room temperature for 1 hour, washed with TTBS, and then incubated overnight at 4° C. in the appropriate primary antibody of PKG (Santa Cruz, 1:200), sGCa1 (Santa Cruz, 1:200), PKA (Abcam, 1:1000), ROCK2 (Upstate, 1:1000), and PDE5A (BD Biosciences, 1:1000), p21 (Upstate, 1:1000). The membranes were washed in TTBS before being incubated with horseradish peroxidase-conjugated antibody against mouse, goat, or rabbit IgG (Santa Cruz, 1:1000) for 1 hour. The membrane was then washed in TTBS and developed with the enhanced chemiluminescence (ECL) for the detection of the specific antigen. The intensity of the bands was measured by densitometry.

Assay [6] deals with PKG. Put plainly: Western blot of PKG expression in rat prostate. To be noted: KMUP-1 10, 100 μM; sildenafil, zaprinast 100 μM. The protocol: as §1, §2
Setting [7] is: phenylephrine 10 μM pre-contracted.

In the case of `Nc1nc2c(nc(Sc3ccc(Cl)cc3)n2C2O[C@@H]3COP(=O)(O)O[C@H]3[C@H]2O)c(=O)[nH]1` (stereo in doubt) [8-pCPT-cGMP, reference compound], the relaxation in assay [1] (setting [7]) worked out at 35.00±4.40%.
Consider `C[C@@H](N)[C@H]1CC[C@H](C(=O)Nc2ccncc2)CC1` [Y-27632, reference compound], for which the “phenylephrine-induced Rho kinase expression” value in assay [2] is recorded as “protected against phenylephrine-induced Rho kinase expression”.
For `COc1cc2nc(N3CCN(C(=O)C4COc5ccccc5O4)CC3)nc(N)c2cc1OC` (centres unmarked) [doxazosin, reference compound], in assay [3], the “Receptor Affinity (pKi) a1A” value is 8.56. For the same compound, in assay [1] (setting [7]), the relaxation was 73.00±2.8%.
`CCCc1nn(C)c2c(=O)[nH]c(-c3cc(S(=O)(=O)N4CCN(C)CC4)ccc3OCC)nc12` [sildenafil, reference compound] registered a cGMP levels in assay [4] of 3.20±0.61 pmol mg^−1 protein. Besides, in assay [5], the “expression of sGCa1” value is recorded as “do not significantly induce”. For the same compound, the relaxation ability in assay [1] (0.1 μM, phenylephrine 10 μM pre-contracted) is reported as 21.50±2.12%; in assay [1] (fourth value of the sentence, concentration not given), 78.00±8.02%. Further, the relaxation in assay [1] (setting [7]) worked out at 50.00±6.37%. Besides, the “expression of PKG” value in assay [6] was “significantly induce”.
Take `CCOc1ccccc1OCCN[C@H](C)Cc1ccc(OC)c(S(N)(=O)=O)c1` [tamsulosin, reference compound]: in assay [3], the “Receptor Affinity (pKi) a1A” value is reported as 9.7, the “Selective Ratio a1A/a1B” value is reported as 6.3 and the “Selective Ratio a1A/a1D” value is 0.2. In assay [1] (setting [7]), the relaxation was 107.50±6.76%. Moreover, in assay [1] (100 μM combined with sildenafil 0.1 μM), the relaxation activity was 140.00±10.14%. Moreover, the relaxation ability in assay [1] (100 μM, phenylephrine 10 μM pre-contracted) is reported as 118.00±10.79%.
`CCCOc1ccccc1-c1nc2nn[nH]c2c(=O)[nH]1` [zaprinast, reference compound] gave a cGMP levels in assay [4] of 2.23±0.24 pmol mg^−1 protein. Further, the “expression of sGCa1” value in assay [5] is reported as “do not significantly induce”. Further, in assay [1] (setting [7]), the relaxation is listed as 79.00±5.00%. In assay [6], the “expression of PKG” value is reported as “significantly induce”.
